Patent publication US12077508B2, “Inhibitors of the Notch transcriptional activation complex kinase (“NACK”) and methods for use of the same” (UNIVERSITY OF MIAMI, priority 2018, dated 2024)
“Also recorded” adds a separate entry of the source.

Experiments:
OE33 cell line = assay: Colony formation assay in OE33 cells; assay type: cell-based, human; conditions: cells treated every other day; FIGS. 5B, 5C
Description: (§1) A cell based colony formation assay was used in these experiments. Normal mouse mammary epithelia HC11 cells have little or no endogenous NACK expression, and NACK knockdown had no effect on the growth of HC11 cells (FIG. 5A, lower panel). […] Knockdown of NACK was confirmed by western blot and qPCR (FIGS. 1D and 1E). […] Therefore, compounds that affect OE33 colony formation but not HC11 were desired. In order to screen the compounds, cells were treated with test compounds every other day.
(§2) Colony formation assay was utilized to determine the effect of small molecule inhibitors on cell proliferation. In general, different cell lines (NACK dependent or independent) will be seeded in 6-well plates at a density of 2000 cells per well and allowed to attach overnight. Inhibitor treatment commenced 24 hours post seeding, and the media containing inhibitor was changed every 48 hours thereafter. After 168 hours, colonies were be stained with Crystal Violet (Millipore) and counted.

HC11 cells = assay: Colony formation assay in HC11 cells; assay type: cell-based, mouse; conditions: Notch/NACK independent cell line; FIG. 5B
Description: as §1, §2

HES1 promoter = assay: Chromatin immunoprecipitation (ChIP) at the HES1 promoter in OE33; assay type: cell-based, human; conditions: 24 hours, FIG. 8C
Description: Notch/NACK-dependent cells were treated with either DAPT as a positive control, DMSO (vehicle) as a negative control, or compounds for screening for 24 hours. After treatment, cells were cross-linked and sonicated to yield chromatin fragments of approximately 500 bp, as previously described (See Weaver et al., Cancer Research 74, 4741-4751 (2014)). Lysates were immunoprecipitated with either α-Notch1 (Bethyl Laboratories, Montgomery, TX; A301-894A), α-Maml1 (Cell Signaling, 12166s), α-NACK (Bethyl Laboratories, A302-675A), or α-PoIII pSer5 (Abcam, ab5131) antibodies. DNA immunoprecipitates were cleaned using the PCR purification Kit (Qiagen). DNA were detected by Syber green qPCR using HES1 specific oligonucleotide primers (forward: 5′CGTGTCTCCTCCTCCCATT3′ (SEQ ID NO: 2); reverse: 5′GGGGGATTCCGCTGTTAT3′ (SEQ ID NO:3)).

OE33 cells = assay: Cell apoptosis assay (Annexin V/PI flow cytometry); assay type: cell-based, human; conditions: day 7 of treatment, FIG. 9A
Description: To investigate how Z271-0326 inhibits cell growth in EAC cell lines, the effect of Z271-0326 treatment was evaluated on apoptosis. OE33 was treated either with the GSI DAPT or Z271-0326 every other day, and their effects on apoptosis were analyzed. On day 7 of treatment, cell apoptosis was analyzed using FITC Annexin V/Dead Cell Apoptosis Kit with FIFC annexin V and PI for flow cytometry (Invitrogen, V13242).

## C[C@H](NC(=O)Cc1cc(F)cc(F)c1)C(=O)N[C@H](C(=O)OC(C)(C)C)c1ccccc1 [DAPT, reference compound]
OE33 cell line
  OE33 colony formation: reduction in the colony formation
HC11 cells
  HC11 colony formation / viability: did not alter the viability of HC11 cells; also recorded: insensitive
HES1 promoter
  binding of N1ICD and NACK to the HES1 promoter: abrogated the binding of N1ICD and NACK to the HES1 promoter
OE33 cells
  increase in the percent of cells undergoing apoptosis compared to the control: twofold
